Data from patent US4419351A, “Platinum-dioxopyrimidine complexes” (priority 1978, dated 1983).
Where two headings read alike, the source gives them in different places.

Tests used:
[1] = system: ascites Sarcoma-180 tumor; experiment: chemotherapeutic activity vs ascites Sarcoma-180 tumor, single i.p. injection on day 1 (Table 2 survey); assay type: in vivo, Swiss White mice; details: for # of cures / Dose of Best % ILS / Toxic Level / Best % ILS (increase in lifespan): carrier saline; for Dose of Best % ILS / Toxic Level / Best % ILS (increase in lifespan): single i.p. day 1; for Toxic Level: 2 or more of 6 animals died within 8 days; for Best % ILS (increase in lifespan): max 100%
Experimental: The chemotherapeutic activities of the "Platinum Blue" complexes were determined using the ascites Sarcoma-180 tumor in Swiss White mice. The protocols for these tests were as follows: Random bred female Swiss White mice (Spartan Laboratory, Williamston, Mich.) of 18-20 grams weight were randomized in groups of six. The ascites cells were removed from the peritoneal cavities of animals with approximately 10 day old ascites tumors. The cells were washed several times with 0.85% saline and spun down each time in a refrigerated centrifuge for 3-5 minutes at 750 r.p.m. After the blood was removed from the cells, they were diluted with 0.85% saline solution and counted in a hemocytometer. A final dilution of 2×10^7 cells/ml. in saline was made. Each animal received 0.2 ml. of this suspension (4×10^6 cells/animals). This was injected intraperitoneally on day 0 of each test. Two groups (12 animals) were kept as negative controls, and the test was terminated at twice the mean day of death of the negative controls. […] All test compounds were injected i.p. on day one as a 0.5 ml. volume of the compound in a carrier of water, physiologic saline or arachis oil (peanut oil). Soluble compounds were always tested in appropriate solutions, the insoluble ones as a slurry. The slurry was sonicated for periods of up to 10 minutes to insure uniformity of dispersion just prior to injections. […] Retests were performed if a sufficient level of drug toxicity at the highest dose was not reached. Animals still alive at the completion of the tests were considered to have died on the day of evaluation. Animals showing no abdominal distention (by palpation, or visibly) on this day were considered cured.
The compounds tested were usually freshly prepared and purified. The compounds kept for further testing were stored in a vacuum dessicator in a dark refrigerator to prevent deterioration. […] Toxic levels are considered to be that concentration where 2 or more of the 6 animals at the dose died within 8 days of injection.
The letter A indicates the "blue" or first isolated precipitate, the letter B, the "green" or second precipitate.

[2] = system: L1210 Tumor; experiment: effects on L1210 tumor (Table 4); assay type: in vivo, BDF Mice; details: for Survivors: at 200% ILS
Text: (§1) Tables 4-7, respectively, tabulate the results achieved when employing the complexes of the invention against the L1210, MCDV 12, (Rauscher Leukemia, virus-induced), Ehrlich Ascites and the ADJ PC6A (myeloma) tumors.
^a All experiments were terminated arbitrarily at 200% ILS and any
survivors were tabulated at that time. All therapy was started on the
third day after tumor transplant. Untreated tumor controls died 10-11 day
after transplant. In some instances efforts to reproduce above results
have shown considerable variability.

[3] = system: MCDV 12 (Rauscher Leukemia, Virus Induced); experiment: effects on MCDV 12 (Rauscher Leukemia, virus induced) (Table 5); assay type: in vivo, BALB/C Mice; details: for Survivors: at 200% ILS
Text: as §1
^a All experiments were terminated arbitrarily at 200% ILS and
survivors tabulated at that time. All therapy was started on third day
after tumor transplant. Untreated tumor controls died 10-11 days after
transplant. In some instances, efforts to reproduce above results have
shown considerable variability.

[4] = system: ADJ/PC6A Tumor; experiment: effects on ADJ/PC6A tumor (Table 7); assay type: in vivo, Female, C^- Mice; details: i.p., single dose, 24 days after tumor implant
[5] = system: Mice Kidneys (proximal convoluted tubules); design: species or system female Swiss White mice; details: mouse, in vivo
Text: The protocols for these tests were as follows: Each group contained six female Swiss White mice; the tumored animals were given a transplant of a solid Sarcoma-180 tumor on day 0 and treatment was initiated on day 1; the animals were sacrificed on day 10 and the kidneys removed and prepared for histological evaluation; control groups were non-tumored, non-treated animals, and tumored, non-treated animals. Multiple sections of each kidney were examined. […] The saturation concentration cannot be specified other than an estimate of less than 1 mg/100 ml. A very brief summary of the results are compiled in Table 8. The histopathologic degenerative changes are dose dependent in all cases.

[6] = system: ascites Sarcoma-180 tumor; experiment: schedule dependency tests of antitumor activity (Table 3); assay type: in vivo, Swiss White mice; details: for # of cures / Best % ILS / Dose of Best % ILS: saline
Experimental: The chemotherapeutic activities of the "Platinum Blue" complexes were determined using the ascites Sarcoma-180 tumor in Swiss White mice. The protocols for these tests were as follows: Random bred female Swiss White mice (Spartan Laboratory, Williamston, Mich.) of 18-20 grams weight were randomized in groups of six. The ascites cells were removed from the peritoneal cavities of animals with approximately 10 day old ascites tumors. The cells were washed several times with 0.85% saline and spun down each time in a refrigerated centrifuge for 3-5 minutes at 750 r.p.m. After the blood was removed from the cells, they were diluted with 0.85% saline solution and counted in a hemocytometer. A final dilution of 2×10^7 cells/ml. in saline was made. Each animal received 0.2 ml. of this suspension (4×10^6 cells/animals). This was injected intraperitoneally on day 0 of each test. Two groups (12 animals) were kept as negative controls, and the test was terminated at twice the mean day of death of the negative controls. […] Soluble compounds were always tested in appropriate solutions, the insoluble ones as a slurry. The slurry was sonicated for periods of up to 10 minutes to insure uniformity of dispersion just prior to injections. […] Retests were performed if a sufficient level of drug toxicity at the highest dose was not reached. Animals still alive at the completion of the tests were considered to have died on the day of evaluation. Animals showing no abdominal distention (by palpation, or visibly) on this day were considered cured.

[7] = system: Ehrlich Ascites Tumor; experiment: survival times of mice bearing the Ehrlich ascites tumor (Table 6); assay type: in vivo; details: 7 mg/kg; for Mean Survival Time (+ S.D.): single i.p. day 3
Text: as §1
^a 6 mice/group; each mouse received 10^7 ascites tumor cells on
day 0; treatment was as a single i. p. injection on day 3.

[8] = system: Escherichia coli-wild type; experiment: anti-microbial activity, growth in test tube cultures (Table 9); assay type: cell-based
Experimental: The following procedure was utilized to test the anti-microbal activity of the platinum complexes. The tests were performed with Escherichia coli-wild type, growing in test tube cultures. Using standardized techniques, growth in the medium was examined after the incorporation of the various test chemicals, using the increase in the optical density of the medium as against time. The bacteria were also periodically examined under a phase contrast microscope for evidence of elongation (filmentation).

With CC1CNC(=O)NC1=O (stereo not drawn) [5,6-dihydrothymine Class IA] the “# of cures” value ([1]; 6 animals per test) was 2, the “Dose of Best % ILS” value [1] was 200 mg/kg and the “Toxic Level” value [1] was 400 mg/kg. For the same compound, the “Best % ILS (increase in lifespan)” value [1] was 87%, the “% ILS” value ([2]; 30.63 mg/kg q3 hr × 8) was 30% and the Survivors ([2]; 30.63 mg/kg q3 hr × 8) was 0/3. The “% ILS” value ([2]; 50 mg/kg qid × 5) was 36%, the Survivors ([2]; 50 mg/kg qid × 5) was 0/3 and the “% ILS” value ([2]; 61.25 mg/kg q3 hr × 8) was 0%. The Survivors ([2]; 61.25 mg/kg q3 hr × 8) was 0/3, the “% ILS” value ([2]; 100 mg/kg qid × 5) was 45% and the Survivors ([2]; 100 mg/kg qid × 5) was 0/3. The “% ILS” value ([3]; 30.63 mg/kg q3 hr × 8) was 75%, the Survivors ([3]; 30.63 mg/kg q3 hr × 8) was 1/3 and the “% ILS” value ([3]; 50 mg/kg qid × 5) was 157%. The Survivors ([3]; 50 mg/kg qid × 5) was 2/3, the “% ILS” value ([3]; 61.25 mg/kg q3 hr × 6) was 121% and the Survivors ([3]; 61.25 mg/kg q3 hr × 6) was 2/3. The “% ILS” value ([3]; 100 mg/kg qid × 5) was 0%, the Survivors ([3]; 100 mg/kg qid × 5) was 0/3 and the “ID 90 (90% Inhibition)” value [4] was 25 mg/kg. For the same compound, the LD50 [4] was 135 mg/kg.
With CCOC(=O)c1c[nH]c(=O)[nH]c1=O [5-carbethoxyuracil Class IA] the “# of cures” value ([1]; 6 animals per test) was 0, the “Dose of Best % ILS” value [1] was 200 mg/kg and the “Toxic Level” value [1] was 200 mg/kg. For the same compound, the “Best % ILS (increase in lifespan)” value [1] was 56%, the “ID 90 (90% Inhibition)” value [4] was 250 mg/kg and the LD50 [4] was 670 mg/kg.
With O=c1[nH]cc(CO)c(=O)[nH]1 [5-hydroxymethyluracil Class IA] the “# of cures” value ([1]; 6 animals per test) was 2, the “Dose of Best % ILS” value [1] was 100 mg/kg and the “Toxic Level” value [1] was 200 mg/kg. For the same compound, the “Best % ILS (increase in lifespan)” value [1] was 98%, the “ID 90 (90% Inhibition)” value [4] was 42 mg/kg and the LD50 [4] was 40 mg/kg.
With O=c1cc(Cl)[nH]c(=O)[nH]1 [6-chlorouracil Class IA] the “# of cures” value ([1]; 6 animals per test) was 3, the “Dose of Best % ILS” value [1] was 200 mg/kg and the “Toxic Level” value [1] was over 200 mg/kg. The “Best % ILS (increase in lifespan)” value [1] was 88%, the “ID 90 (90% Inhibition)” value [4] was 190 mg/kg and the LD50 [4] was 200 mg/kg.
With CC#N.CC#N.[Cl][Pt][Cl] [Pt(CH3 CN)2 Cl2, reference compound] the “# of cures” value ([1]; 6 animals per test) was 1, the “Dose of Best % ILS” value [1] was 25 mg/kg and the “Toxic Level” value [1] was 50 mg/kg. The “Best % ILS (increase in lifespan)” value [1] was 83% and the gross hepatic damage ([1]; in words) was “exceptions”.
With [Cl][Pt+2][Cl].[NH-]C1CCCC1.[NH-]C1CCCC1 [cis-dichloro(bis)cyclopentylamineplatinum(II)] the “histopathologic degenerative changes at higher dose levels” value [5] was “generalized vacuolar (hydropic) degeneration of the proximal convoluted tubules” and the “saturation concentration in saline” value was “less than 1 mg/100 ml”.
In the case of N.N.[Cl][Pt][Cl] [cis-dichlorodiammineplatinum(II)], the “Dose of Best % ILS” value [1] is reported as 7 mg/kg, the “Best % ILS (increase in lifespan)” value [1] is reported as 49 (S.D ± 2.82) % and the “# of cures” value ([1]; positive control, of 12 animals) is reported as 1. The “# of cures” value ([6]; day 1, 1 injection) was 1, the “Best % ILS” value ([6]; day 1, 1 injection) was 42 (S.D. ± 3.1) % and the “Dose of Best % ILS” value ([6]; day 1, 1 injection) was 7 mg/kg. For the same compound, the “Best % ILS” value ([6]; every 5th day, 5 injections) was 83%, the “Dose of Best % ILS” value ([6]; every 5th day, 5 injections) was 5 mg/kg and the “# of cures” value ([6]; every 5th day, 5 injections, 6 animals per test) was 3. The “Best % ILS” value ([6]; every 3 hrs., 8 injections) was 86%, the “Dose of Best % ILS” value ([6]; every 3 hrs., 8 injections) was 1 mg/kg and the “# of cures” value ([6]; every 3 hrs., 8 injections, 6 animals per test) was 5. The “animals died within 9 days of start (remainder cured)” value ([6]; every day, 5 injections, 3 mg/kg) was “Three”, the “Best % ILS” value ([6]; every day, 5 injections) was 19% and the “Dose of Best % ILS” value ([6]; every day, 5 injections) was 3 mg/kg. For the same compound, the “# of cures” value ([6]; every day, 5 injections, 6 animals per test) was 3, the “% ILS” value ([3]; 5 mg/kg × 1) was 146% and the Survivors ([3]; 5 mg/kg × 1) was 2/3. For the same compound, the “% ILS” value ([3]; 8 mg/kg × 1) was 62%, the Survivors ([3]; 8 mg/kg × 1) was 0/2 and the “% ILS” value ([3]; 16 mg/kg × 1) was -15%. The Survivors ([3]; 16 mg/kg × 1) was 0/3, the “% Increase in Mean Survival Time” value ([7]; first experiment) was 307% and the “Mean Survival Time (+ S.D.)” value ([7]; first experiment (control 8.3 days)) was 33.8 ± 16.9 days. The “animals that survived > 60 days” value ([7]; first experiment, 6 mice/group) was 2 animals, the “% Increase in Mean Survival Time” value ([7]; second experiment) was 194% and the “Mean Survival Time (+ S.D.)” value ([7]; second experiment (control 10.1 days)) was 29.7 ± 4.2 days. For the same compound, the “ID 90 (90% Inhibition)” value [4] was 1.6 mg/kg, the “histopathologic degenerative changes at higher dose levels” value [5] was “generalized vacuolar (hydropic) degeneration of the proximal convoluted tubules” and the “Observed Renal Histopathological Changes” value ([5]; 0.5 mg/kg) was “normal”. For the same compound, the “Observed Renal Histopathological Changes” value ([5]; 1 mg/kg) was “normal”, the “Observed Renal Histopathological Changes” value ([5]; 2 mg/kg) was “mild degenerative changes (cloudy swelling)” and the “Observed Renal Histopathological Changes” value ([5]; 3 mg/kg) was “mild degenerative changes (cloudy swelling)”. For the same compound, the “Observed Renal Histopathological Changes” value ([5]; 7 mg/kg) was “extensive degenerative changes (hydropic degeneration)”, the “Optical Density of Bacterial Cultures” value ([8]; 7 ppm, 1:45 p.m., first run) was “.74” and the “Optical Density of Bacterial Cultures” value ([8]; 7 ppm, 2:45 p.m., first run) was “.78”. For the same compound, the “Optical Density of Bacterial Cultures” value ([8]; 7 ppm, 9:30 a.m., first run) was “.19”, the “Optical Density of Bacterial Cultures” value ([8]; 7 ppm, 10:45 a.m., first run) was “.31” and the “Optical Density of Bacterial Cultures” value ([8]; 7 ppm, 11:45 a.m., first run) was “.44”. The “Optical Density of Bacterial Cultures” value ([8]; 7 ppm, 12:45 p.m., first run) was “.62”, the “Optical Density of Bacterial Cultures” value ([8]; 10 ppm, 1:00 p.m., second run) was “.49” and the “Optical Density of Bacterial Cultures” value ([8]; 10 ppm, 2:00 p.m., second run) was “.55”. For the same compound, the “Optical Density of Bacterial Cultures” value ([8]; 10 ppm, 3:20 p.m., second run) was “.60”, the “Optical Density of Bacterial Cultures” value ([8]; 10 ppm, 9:30 a.m., second run) was “.12” and the “Optical Density of Bacterial Cultures” value ([8]; 10 ppm, 11:00 a.m., second run) was “.26”. The “Optical Density of Bacterial Cultures” value ([8]; 10 ppm, 12:00 p.m., second run) was “.37”.
